Results from BindingDB's records for doi:10.1021/np900246t (Griffith University, 2009).

Molecular target: MAP kinase-activated protein kinase 2 (Homo sapiens, UniProt P49137)
Assay: Inhibition of GST-tagged MAPKAPK2 assessed as [33P] incorporation after 40 mins by scintillation proximity assay

Chain of MAP kinase-activated protein kinase 2 (P49137 whole entry): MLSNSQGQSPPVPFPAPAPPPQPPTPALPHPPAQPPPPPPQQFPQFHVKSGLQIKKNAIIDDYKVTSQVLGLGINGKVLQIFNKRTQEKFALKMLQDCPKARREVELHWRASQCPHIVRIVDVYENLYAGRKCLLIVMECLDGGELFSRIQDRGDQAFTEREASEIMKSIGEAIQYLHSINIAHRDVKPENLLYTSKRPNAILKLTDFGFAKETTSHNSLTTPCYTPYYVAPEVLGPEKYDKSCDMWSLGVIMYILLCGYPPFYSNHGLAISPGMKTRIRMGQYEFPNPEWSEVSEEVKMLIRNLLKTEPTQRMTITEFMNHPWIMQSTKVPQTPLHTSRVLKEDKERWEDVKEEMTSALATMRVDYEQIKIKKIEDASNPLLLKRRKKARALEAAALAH

| SMILES | IC50 [µM] |
| --- | --- |
| CC(C)=CCC/C(C)=C/C[C@]12C[C@@H](CC=C(C)C)C(C)(C)[C@](C/C=C(\C)CCC=C(C)C)(C(=O)C(C(=O)c3ccc(O)c(O)c3)C1=O)C2=O (some centres not stated) [guttiferone O] | 22 |
| CC(C)=CCC/C(C)=C/C[C@]12C[C@@H](CC=C(C)C)[C@](C)(CCC=C(C)C)[C@](CC=C(C)C)(C(=O)C(C(=O)c3ccc(O)c(O)c3)C1=O)C2=O (some centres not stated) [guttiferone P] | 22 |
